Experimental data from paper PMC13308190, “Endothelial progenitor cell susceptibility to DNA damaging and DDR-modulating compounds determines endothelial differentiation accuracy” (Stem Cell Research & Therapy, 2026).
pIC50: −log10 of the molar value.

How the values were obtained:
Type in all cases: cell-based, mouse
[1] = tested on: mESC; test: AlamarBlue cell viability; details: 24–72 h treatment
Experimental: (§1) Drug-induced cytotoxicity was monitored by analyzing cell viability using the AlamarBlue assay, which measures the reduction of the non-fluorescent dye resazurin (Sigma [Steinheim, Germany]) to fluorescent resorufin by living (i.e. metabolically active) cells. Fluorescence was measured in quadruplicates (excitation: 535 nm, emission: 590 nm (Tecan infinite 200, Tecan, Männedorf, Switzerland)). Relative cell viability of the untreated control was set to 100%.

[2] = tested on: EC d4 (endothelial progenitor cells); test: AlamarBlue cell viability; details: 48 h treatment
Experimental: as §1

[3] = tested on: EC d4; test: EdU incorporation (S-phase activity); details: EC d4 48 h
Experimental: S-phase activity of cells was monitored by measuring EdU incorporation using the EdU-Click 488 assay according to the manufacturer’s protocol. Briefly, cells were pulse-treated with 5-ethynyl-2′-deoxyuridine (EdU) for 3 h. Alexa Fluor 488-conjugated reaction cocktail was added (30 min, RT) and nuclei were counterstained with DAPI. The percentage of EdU-positive area/DAPI-positive area was calculated by fluorescence microscopy (Olympus BX43, 20x objective).

[4] = tested on: mESC; test: RT-qPCR mRNA expression; details: for Cdkn1a mRNA / Cdkn2a mRNA / Glb1 mRNA / Il6 mRNA / Il8 mRNA / Tp53 mRNA: Fig 7A
Experimental: Total RNA was purified using the RNeasy Mini Kit (Qiagen, Hilden, Germany). Reverse transcriptase (RT) reaction was performed with the HighCapacity cDNA Reverse Transcription Kit (Applied Biosystems, Darmstadt, Germany) using 900–2000 ng of RNA. Quantitative RT-qPCR analysis was performed using following conditions: (1) 95 °C–10 min; (2) 45 amplification cycles with 95 °C–15 s, 55 °C–15 s, and 72 °C–17 s; (3) 95 °C–1 min, 55 °C–1 min, 65 °C–5 s. If not stated otherwise, analyses were performed in technical triplicates using pooled samples from two independent experiments (each performed with biological duplicates) by use of a CFX96 cycler (BioRad) and the SensiMix SYBR Kit (Bioline, London, UK). The primers used for mRNA expression analyses are listed in Supplementary Table 1. To ensure the specificity of the amplification product, melting curves were recorded at the end of the run. mRNA expression levels were normalized to β-Actin and Gapdh. Relative mRNA expression in mESC or corresponding untreated controls was set to 1.0. Only changes in gene expression of ≤ 0.5- and ≥ 2-fold were considered as biologically relevant. Fold-changes in gene expression are summarized in Supplementary Table 2.

[5] = tested on: mESC; test: Western blot protein expression (densitometry); details: mESC 24 h
Experimental: (§2) Total protein cell extracts were obtained upon sonication in RIPA buffer (EpiShearTM Probe sonicator, Active Motif [La Hulpe, Belgium]). Protein concentrations were determined using the DC Protein Assay (BioRad [Munich, Germany]). Extracts were supplemented with Roti®-Load buffer (Carl Roth GmbH [Karlsruhe, Germany]) followed by heating (95 °C for 5 min). 20 µg of protein was separated by SDS-PAGE and transferred onto nitrocellulose membrane. After blocking (5% non-fat milk in TBS/0.1% Tween 20 or 5% BSA in TBS/0.1% Tween 20) (1 h, RT) membrane was incubated with primary antibodies (1:500–5000; overnight, 4 °C). After washing with TBS/0.1% Tween 20, peroxidase-conjugated secondary antibody (1:2000) was added (2 h, RT) and bands were visualized using ChemiDoxTM Touch imaging system (BioRad, Munich, Germany).

[6] = tested on: EC d4 (endothelial progenitor cells); test: Western blot protein expression (densitometry); details: EC d4 48 h; for CHK1 protein / RAD51 protein / gH2AX protein / p-CHK2 protein / p-KAP1 protein / p-RPA32 protein / p-p53 protein: Fig 5D
Experimental: as §2

[7] = tested on: EC d6 (endothelial-like cells); test: Western blot protein expression (densitometry); details: EC d6 24 h; for CHK1 protein / RAD51 protein / gH2AX protein / p-CHK2 protein / p-KAP1 protein / p-RPA32 protein / p-p53 protein: Fig 5D
Experimental: as §2

[8] = mESC + 10 µM 24 h + 24 h post incubation
[9] = mESC + 20 µM 24 h + 24 h post incubation
[10] = Fig 5D, concentration 1 (Dox 1/B02 1/EST 1)
[11] = Fig 5D, concentration 2 (Dox 2/B02 2/EST 2)
[12] = concentration 1 (Dox 1/B02 1/EST 1)
[13] = concentration 2 (Dox 2/B02 2/EST 2)

O=c1c2ccccc2nc(/C=C/c2cccnc2)n1Cc1ccccc1 [B02]
pIC50 [1]: ~4.70 | susceptibility (cell viability) of EC d4 as compared to both mESC and EC d6 [2]: not observed | S-phase activity (EdU-positive cells) [3]: decrease in S-phase activity | Cdkn1a mRNA [4, 8]: 0.89 Fold of untreated control | Cdkn2a mRNA [4, 8]: 0.97 Fold of untreated control | Glb1 mRNA [4, 8]: 1.06 Fold of untreated control | Il6 mRNA [4, 8]: 0.98 Fold of untreated control | Il8 mRNA [4, 8]: 0.76 Fold of untreated control | Tp53 mRNA [4, 8]: 1.09 Fold of untreated control | Cdkn1a mRNA [4, 9]: 0.94 Fold of untreated control | Cdkn2a mRNA [4, 9]: 0.89 Fold of untreated control | Glb1 mRNA [4, 9]: 1.06 Fold of untreated control | Il6 mRNA [4, 9]: 1.35 Fold of untreated control | Il8 mRNA [4, 9]: 0.93 Fold of untreated control | Tp53 mRNA [4, 9]: 0.98 Fold of untreated control | Brca1 mRNA ([4]; mESC + 20 µM 24 h, Fig 5C): 0.95 Fold of mESC | Chk1 mRNA ([4]; mESC + 20 µM 24 h, Fig 5C): 1.33 Fold of mESC | Rad51 mRNA ([4]; mESC + 20 µM 24 h, Fig 5C): 0.90 Fold of mESC | Pgc1a mRNA ([4]; mESC + 20 µM 24 h, Fig 6D): 2.40 Fold of untreated control | H3ac protein ([5]; Fig 1D): 1.8 Fold of mESC | H4ac protein ([5]; Fig 1D): 232.9 Fold of mESC | aTubac (acetylated α-Tubulin) protein ([5]; Fig 1D): 0.5 Fold of mESC | CHK1 protein ([5]; Fig 4H, Eto, Dox 1, B02, EST): 1.4 Fold of mESC | p-ATR protein ([5]; Fig 4H, Eto, Dox 1, B02, EST): 2.7 Fold of mESC | p-CHK1 protein ([5]; Fig 4H, Eto, Dox 1, B02, EST): 0.8 Fold of mESC | p-RPA32 protein ([5]; Fig 4H, Eto, Dox 1, B02, EST): 2.0 Fold of mESC | p-p53 protein ([5]; Fig 4H, Eto, Dox 1, B02, EST): 1.2 Fold of mESC | CHK1 protein [5, 10]: 0.8 Fold of mESC | RAD51 protein [5, 10]: 1.9 Fold of mESC | gH2AX protein [5, 10]: < 0.1 Fold of mESC | p-CHK2 protein [5, 10]: 0.9 Fold of mESC | p-KAP1 protein [5, 10]: 1.30 Fold of mESC | p-RPA32 protein [5, 10]: 0.8 Fold of mESC | p-p53 protein [5, 10]: 0.9 Fold of mESC | CHK1 protein [5, 11]: 1.0 Fold of mESC | RAD51 protein [5, 11]: 2.3 Fold of mESC | gH2AX protein [5, 11]: 0.5 Fold of mESC | p-CHK2 protein [5, 11]: 1.1 Fold of mESC | p-KAP1 protein [5, 11]: 1.26 Fold of mESC | p-RPA32 protein [5, 11]: 1.3 Fold of mESC | p-p53 protein [5, 11]: 1.2 Fold of mESC | AMPKa protein ([5]; Fig 6E): 0.2 Fold of mESC | GSK3b protein ([5]; Fig 6E): 1.3 Fold of mESC | p-p70SK protein ([5]; Fig 6E): 1.2 Fold of mESC | H3ac protein ([6]; Fig 1D): 0.0 Fold of mESC | H4ac protein ([6]; Fig 1D): 0.0 Fold of mESC | aTubac (acetylated α-Tubulin) protein ([6]; Fig 1D): 0.6 Fold of mESC | CHK1 protein [6, 12]: 0.4 Fold of mESC | RAD51 protein [6, 12]: 0.7 Fold of mESC | gH2AX protein [6, 12]: 1.8 Fold of mESC | p-CHK2 protein [6, 12]: 0.2 Fold of mESC | p-KAP1 protein [6, 12]: 0.0 Fold of mESC | p-RPA32 protein [6, 12]: 0.3 Fold of mESC | p-p53 protein [6, 12]: 0.6 Fold of mESC | CHK1 protein [6, 13]: 0.2 Fold of mESC | RAD51 protein [6, 13]: 0.3 Fold of mESC | gH2AX protein [6, 13]: 0.0 Fold of mESC | p-CHK2 protein [6, 13]: < 0.1 Fold of mESC | p-KAP1 protein [6, 13]: 0.0 Fold of mESC | p-RPA32 protein [6, 13]: 0.4 Fold of mESC | p-p53 protein [6, 13]: 0.3 Fold of mESC | AMPKa protein ([6]; Fig 6E): 0.1 Fold of mESC | GSK3b protein ([6]; Fig 6E): 1.9 Fold of mESC | p-p70SK protein ([6]; Fig 6E): 1.4 Fold of mESC | H3ac protein ([7]; Fig 1D): 0.1 Fold of mESC | H4ac protein ([7]; Fig 1D): 0.0 Fold of mESC | aTubac (acetylated α-Tubulin) protein ([7]; Fig 1D): 0.3 Fold of mESC | CHK1 protein [7, 12]: 0.7 Fold of mESC | RAD51 protein [7, 12]: 0.7 Fold of mESC | gH2AX protein [7, 12]: 1.2 Fold of mESC | p-CHK2 protein [7, 12]: 0.1 Fold of mESC | p-KAP1 protein [7, 12]: 0.0 Fold of mESC | p-RPA32 protein [7, 12]: 0.1 Fold of mESC | p-p53 protein [7, 12]: 0.4 Fold of mESC | CHK1 protein [7, 13]: 0.1 Fold of mESC | RAD51 protein [7, 13]: < 0.1 Fold of mESC | gH2AX protein [7, 13]: 0.1 Fold of mESC | p-CHK2 protein [7, 13]: 0.0 Fold of mESC | p-KAP1 protein [7, 13]: 0.0 Fold of mESC | p-RPA32 protein [7, 13]: < 0.1 Fold of mESC | p-p53 protein [7, 13]: 0.2 Fold of mESC | AMPKa protein ([7]; Fig 6E): 0.1 Fold of mESC | GSK3b protein ([7]; Fig 6E): 1.8 Fold of mESC | p-p70SK protein ([7]; Fig 6E): 1.1 Fold of mESC
